Here are results for 53 compounds from US6703388B2, “Nitrogen-containing tricyclic compounds and drugs containing the same” (Eisai Co., Ltd., priority 1996, dated 2004).

Like-named read-outs stand apart in the source and are kept apart here.

One experiment deals with RBL-2H3 cells. Nature of the experiment: Inhibition of serotonin liberation from IgE-sensitized RBL-2H3 cells after antigen stimulation. Format: cell-based, rat. Conditions: Rattus norvegicus. The text has this:
IgE-sensitized RBL-2H3 cells (i.e., a cell line originating in rat cells) release and produce not only histamine and serotonin but also cytokines such as TNF α and prostaglandins which are inflammatory mediators after stimulation with IgE sepecific antibody. In this experimental system, inhibitory effects on various mediators release were examined by using serotonin as an indication.
The cells were beforehand labeled with [^3H]-labeled serotonin and, at the same time, sensitized with the IgE antibody. After incubating with the compounds of the present invention, the cells were stimulated with the specific antigen. Then the inhibitory activity of each compound was calculated from the amount of the [^3H]-labeled serotonin thus liberated into the medium and the amount of [^3H]-labeled serotonin liberated when no compound of the present invention was added.

In the next experiment the test system is human basophils. Nature of the experiment: Inhibition of mediator (histamine, peptide leukotriene) liberation from human basophils stimulated with mite antigen. The format is cell-based. Conditions: enzyme immunoassay. Here is the method:
6 ml of 6% dextran (for separating leukocytes, having a high molecular weight) was added to 20 ml of heparinized blood. After stirring well, the resulting mixture was allowed to stand at 37° C. for 30 min and thus erythrocytes were precipitated. The upper layer was taken up and phosphate buffered saline (D-PBS) was added thereto followed by centrifugation at 185 g for 8 minutes to give a crude leukocyte fraction. These cells were subjected to hypotonic hematolysis and then suspended in D-PBS(+) containing 0.1%-BSA. The resulting suspension was used in the subsequent experiment as the leukocyte fraction containing basophils. 0.4 ml of this cell suspension was preliminarily heated to 37° C. for 5 min and then 0.05 ml of a specimen solution was added thereto followed by a pretreatment at 37° C. for 15 min. Next, 0.05 ml of a mite antigen solution was added thereto to induce an antigen-antibody reaction. After 10 min, the reaction was ceased by ice-cooling. Then the reaction mixture was centrifuged at 185 g for 10 min and histamine and peptide leukotrienes in the resulting supernatant were determined by using enzyme immunoassay kits. From the results of the assay, the activities of the acridone derivatives of inhibiting the liberation of histamine and peptide leukotriene were determined.

The mark [1] stands for this setting: [3H]-serotonin release, IgE-sensitized RBL-2H3 cells, antigen stimulation, read-out: IC50 (μM) in serotonin liberation from RBL-2H3 cells.
[2] abbreviates: histamine, read-out: IC50 (μM) in mediator liberation from human basophils: histamine.
The mark [3] stands for this setting: peptide leukotriene, read-out: IC50 (μM) in mediator liberation from human basophils: leukotriene.

`Cc1ccc2c(c1C)N(CCCN)c1ccccc1S2` [Example 1, 1,2-Dimethyl-10-(3-aminopropyl)phenothiazine]: the IC50 with RBL-2H3 cells (setting [1]) is 5 µM. As to `Cc1ccc2c(c1C)N(Cc1cccc(CN)n1)c1ccccc1S2` [Example 3], the IC50 in the experiment on RBL-2H3 cells (setting [1]) is 10 µM. The same measure, in the same setting: in the case of `Cc1ccc2c(c1C)N(CCCN(CC(=O)O)Cc1ccccc1)c1ccccc1S2` [Example 5] it was 5 µM; in that of `Cc1ccc2c(c1C)N(Cc1cccc(CNCc3ccccc3)n1)c1ccccc1S2` [Example 6], 10 µM. For the compound `Cc1ccc2c(c1C)N(Cc1cccc(CNCc3ncc[nH]3)n1)c1ccccc1S2` [Example 7], the IC50 in the experiment on RBL-2H3 cells (setting [1]) was determined as 8 µM. Turning to `Cc1ccc2c(c1C)N(CCCN)c1cc(CCO)ccc1[S+]2[O-]` (stereo not shown) [Example 9], the IC50 in the experiment on RBL-2H3 cells (setting [1]) was below 1 µM. Consider `Cc1ccc2c(c1C)N(CCCN)c1cc(Br)ccc1[S+]2[O-]` (stereo not shown) [Example 10], for which, in the experiment with RBL-2H3 cells (setting [1]), the IC50 was 3 µM. Regarding `Cc1ccc2c(c1C)N(CCCNCc1cccc(C(=O)O)c1O)c1ccccc1[S+]2[O-]` (stereo not shown) [Example 31], the IC50 with RBL-2H3 cells (RBL-2H3, read-out: IC50 (μM) in serotonin liberation from RBL-2H3 cells) turned out to be 0.5 µM. Regarding `COc1ccc(O)c(CNCCCN2c3ccccc3[S+]([O-])c3ccc(C)c(C)c32)c1O` (stereo not shown) [Example 38], in the experiment with RBL-2H3 cells (setting [1]), the IC50 worked out at 8 µM.

On to `Cc1ccc2c(c1C)N(CCCNCc1cc(Br)cc(F)c1O)c1ccccc1[S+]2[O-]` (stereo not shown) [Example 40], for which the IC50 with RBL-2H3 cells (setting [1]) was 5 µM. For the compound `Cc1ccc2c(c1C)N(CCCNCc1cc(Br)cc(Cl)c1O)c1ccccc1[S+]2[O-]` (stereo not shown) [Example 41], the IC50 in the experiment on RBL-2H3 cells (setting [1]) is 5 µM. Turning to `Cc1ccc2c(c1C)N(CCCNCC1CC1)c1ccccc1[S+]2[O-]` (stereo not shown) [Example 43], the IC50 with RBL-2H3 cells (setting [1]) turned out to be 4 µM. On the same count and under the same terms, in the case of `Cc1ccc2c(c1C)N(CCCNCc1ccccc1Cl)c1ccccc1[S+]2[O-]` (stereo not shown) [Example 52] it was 3 µM; in that of `Cc1ccc2c(c1C)N(CCCNCc1ccccc1C(=O)O)c1ccccc1[S+]2[O-]` (stereo not shown) [Example 55], 8 µM; in that of `Cc1ccc2c(c1C)N(CCCNCc1ccccc1OCC(=O)O)c1ccccc1[S+]2[O-]` (stereo not shown) [Example 56], 3 µM.

As for `Cc1ccc2c(c1C)N(CCCNCc1cccc(-c3nnn[nH]3)c1)c1ccccc1[S+]2[O-]` (stereo not shown) [Example 57], the IC50 in the experiment with RBL-2H3 cells (setting [1]) turned out to be 2 µM. As to `Cc1ccc2c(c1C)N(CCCNCc1ncc[nH]1)c1ccccc1[S+]2[O-]` (stereo not shown) [Example 63], in the experiment on RBL-2H3 cells (setting [1]), the IC50 was 3 µM.

Consider `Cc1ccc2c(c1C)N(CCCNCc1nc3ccccc3s1)c1ccccc1[S+]2[O-]` (stereo not shown) [Example 68], for which the IC50 in the experiment with RBL-2H3 cells (setting [1]) was determined as 4 µM. On to `Cc1ccc2c(c1C)N(CCCNCc1ccccn1)c1ccccc1[S+]2[O-]` (stereo not shown) [Example 70], for which the IC50 with RBL-2H3 cells (setting [1]) worked out at 2 µM. `Cc1cccc(CNCCCN2c3ccccc3[S+]([O-])c3ccc(C)c(C)c32)n1` (stereo not shown) [Example 71]: the IC50 with RBL-2H3 cells (setting [1]) was 8 µM. The same measure, in the same setting: for `Cc1ccc2c(c1C)N(CCCNCc1ncco1)c1ccccc1[S+]2[O-]` (stereo not shown) [Example 72] the value was 8 µM; for `Cc1ccc2c(c1C)N(CCCNCc1[nH]cnc1C)c1ccccc1[S+]2[O-]` (stereo not shown) [Example 74], 2 µM; for `Cc1ccc2c(c1C)N(CCCNCc1nccnc1Cl)c1ccccc1[S+]2[O-]` (stereo not shown) [Example 75], 6 µM. For the compound `CCOC(=O)/C(C)=C/c1cc(OC)c(CNCCCN2c3ccccc3[S+]([O-])c3ccc(C)c(C)c32)s1` (stereo not shown) [Example 76], in the experiment on RBL-2H3 cells (setting [1]), the IC50 was 3 µM.

With `COc1ncc(CNCCCN2c3ccccc3[S+]([O-])c3ccc(C)c(C)c32)c(OC)n1` (stereo not shown) [Example 78], the IC50 with RBL-2H3 cells (setting [1]) came out at 4 µM. Regarding `COc1cc(C(N)=O)sc1CNCCCN1c2ccccc2[S+]([O-])c2ccc(C)c(C)c21` (stereo not shown) [Example 79], the IC50 in the experiment on RBL-2H3 cells (setting [1]) stood at 2 µM. On to `Cc1ccc2c(c1C)N(CCCNCc1ccccc1)c1ccc(C#N)cc1[S+]2[O-]` (stereo not shown) [Example 88], for which the IC50 in the experiment with RBL-2H3 cells (setting [1]) was 1 µM. With `COc1ccsc1CNCCCN1c2ccc(C#N)cc2[S+]([O-])c2ccc(C)c(C)c21` (stereo not shown) [Example 89], the IC50 with RBL-2H3 cells (setting [1]) amounted to 2 µM. On to `COC(=O)c1cccc2c1[S+]([O-])c1ccc(C)c(C)c1N2CCCNCc1ccccc1` (stereo not shown) [Example 91], for which the IC50 in the experiment with RBL-2H3 cells (setting [1]) was found to be 5 µM. Take `Cc1ccc2c(c1C)N(CCCNCc1ccc(Cl)cc1Cl)c1cc(CCO)ccc1[S+]2[O-]` (stereo not shown) [Example 93]: the IC50 in the experiment with RBL-2H3 cells (setting [1]) worked out at 3 µM. As for `Cc1ccc2c(c1C)N(CCCNCc1ccc(F)cc1F)c1cc(CCO)ccc1[S+]2[O-]` (stereo not shown) [Example 95], the IC50 in the experiment with RBL-2H3 cells (setting [1]) was 3 µM. Turning to `Cc1ccc2c(c1C)N(CCCNCc1ccccc1)c1cc(-c3nn[nH]n3)ccc1[S+]2[O-]` (stereo not shown) [Example 98], the IC50 with RBL-2H3 cells (setting [1]) was determined as 0.5 µM. With `COc1cc2c(c(C)c1C)N(CCCNCc1ccccc1)c1ccccc1[S+]2[O-]` (stereo not shown) [Example 99], in the experiment with RBL-2H3 cells (setting [1]), the IC50 was 5 µM. `COc1ccsc1CNCCCN1c2ccccc2[S+]([O-])c2c(C)cc(C)c(C)c21` (stereo not shown) [Example 101]: the IC50 in the experiment on RBL-2H3 cells (setting [1]) was found to be 5 µM. Same read-out and setting: for `Cc1ccc2c(c1C)N(CCCN1CCOCC1)c1ccccc1[S+]2[O-]` (stereo not shown) [Example 103, 1,2-Dimethyl-10-[3-(4-morpholino)propyl]phenothiazine-5Oxide] the value was below 3 µM. For `Cc1ccc2c(c1C)N(CCCN1CCC(O)CC1)c1ccccc1[S+]2[O-]` (stereo not shown) [Example 106], the IC50 in the experiment with RBL-2H3 cells (setting [1]) turned out to be 2 µM. Consider `Cc1ccc2c(c1C)N(CCCN1CCC(N(C)C)CC1)c1ccccc1[S+]2[O-]` (stereo not shown) [Example 107], for which the IC50 in the experiment on RBL-2H3 cells (setting [1]) came to 2 µM.

Regarding `Cc1ccc2c(c1C)N(CCCN(CC(=O)O)Cc1ccccc1)c1ccccc1[S+]2[O-]` (stereo not shown) [Example 109], in the experiment with RBL-2H3 cells (setting [1]), the IC50 came to 3 µM.

Consider `Cc1ccc2c(c1C)N(CCCN1CCN(Cc3ccccc3)C(C(=O)O)C1)c1ccccc1[S+]2[O-]` (stereo not shown) [Example 110], for which the IC50 in the experiment with RBL-2H3 cells (setting [1]) came to 1 µM.

On to `Cc1ccc2c(c1C)N(CCCN1CCN(C(C(=O)O)c3ccccc3)CC1)c1ccccc1[S+]2[O-]` (stereo not shown) [Example 111], for which the IC50 in the experiment with RBL-2H3 cells (setting [1]) came to 2 µM. Take `Cc1ccc2c(c1C)N(CCCN1CCN(Cc3ccccn3)CC1)c1ccccc1[S+]2[O-]` (stereo not shown) [Example 112]: the IC50 in the experiment with RBL-2H3 cells (setting [1]) came to 1 µM. Take `Cc1ccc2c(c1C)N(CCCNc1ccccc1O)c1ccccc1[S+]2[O-]` (stereo not shown) [Example 116]: the IC50 in the experiment on RBL-2H3 cells (setting [1]) was 10 µM. With `Cc1ccc2c(c1C)N(CCCN1CCN(C(CO)c3ccccc3)CC1)c1ccccc1[S+]2[O-]` (stereo not shown) [Example 117], the IC50 in the experiment on RBL-2H3 cells (setting [1]) amounted to 2 µM. On the same count and under the same terms, in the case of `Cc1ccc2c(c1C)N(CCCNc1nc[nH]n1)c1ccccc1[S+]2[O-]` (stereo not shown) [Example 118] it was 10 µM; in that of `Cc1ccc2c(c1C)N(CCCn1cnc(N)n1)c1ccccc1[S+]2[O-]` (stereo not shown) [Example 119], 6 µM; in that of `Cc1ccc2c(c1C)N(CCCNCc1nccs1)c1ccccc1[S+]2[O-]` (stereo not shown) [Example 120], 3 µM. As to `Cc1ccc2c(c1C)N(Cc1ccc(CN3CCC(C(=O)O)CC3)cc1)c1ccccc1[S+]2[O-]` (stereo not shown) [Example 121], in the experiment with RBL-2H3 cells (setting [1]), the IC50 stood at 1 µM.

In the case of `C#CCNCCCN1c2ccccc2[S+]([O-])c2ccc(C)c(C)c21` (stereo not shown) [Example 126], the IC50 with RBL-2H3 cells (setting [1]) was found to be 3 µM. For the compound `Cc1ccc2c(c1C)N(CCCNCC#N)c1ccccc1[S+]2[O-]` (stereo not shown) [Example 130], in the experiment on RBL-2H3 cells (setting [1]), the IC50 came to 3 µM. As for `Cc1ccc2c(c1C)N(CCCN(CC#N)CC#N)c1ccccc1[S+]2[O-]` (stereo not shown) [Example 131], the IC50 with RBL-2H3 cells (setting [1]) was found to be 3 µM.

Turning to `Cc1ccc2c(c1C)N(CCCNC(C(=O)O)c1ccccc1)c1ccccc1[S+]2[O-]` (stereo not shown) [Example 133], in the experiment with RBL-2H3 cells (setting [1]), the IC50 stood at 1 µM. Take `Cc1ccc2c(c1C)N(CCCN(C)Cc1cccc(Cl)c1O)c1ccccc1[S+]2[O-]` (stereo not shown) [Example 167]: the IC50 was determined as 10 µM with human basophils (setting [2]) and 3 µM in the experiment on human basophils (setting [3]).

Regarding `Cc1ccc2c(c1C)N(CCCN(C)Cc1ccccc1O)c1cc(C(F)(F)F)ccc1[S+]2[O-]` (stereo not shown) [Example 187], the figures for the IC50 in the experiment with human basophils (setting [2]) and in the experiment on human basophils (setting [3]) were 10 to 30 µM and 3 to 10 µM, respectively.
